Like-named read-outs stand apart in the source and are kept apart here.

Common to all, as to assay type: in vivo
The test system of assay [1] is Kochia (Kochia scoparia). Put plainly: Test A preemergence. Particulars: Bassia scoparia, pre-emergence, 240 h; for pest or weed control at 125 g/ha: 125 g ai/ha, preemergence, 0 to 100 scale where 0 is no effect and 100 is complete control, read-out: Kochia plant response rating; for pest or weed control at 500 g/ha: 500 g ai/ha, Preemergence, visual injury vs untreated controls after approximately 10 d, read-out: Kochia plant response rating (0 to 100 scale where 0 is no effect and 100 is complete control). In short, it runs like this: (§1)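 Ratings of 0 (no effect) to 100 (complete control) come from visual comparison with untreated controls roughly 10 d after treatment. Test chemicals, formulated in a non-phytotoxic solvent mixture with surfactant, were applied either as a preemergence directed soil spray on seeded soil or postemergence to one- to two-leaf plants 2 to 10 cm tall.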

Assay [2] has as its system barnyardgrass (Echinochloa crus-galli). Put plainly: Test A preemergence. To be noted: Echinochloa crus-galli, pre-emergence, 240 h; for pest or weed control at 125 g/ha: 125 g ai/ha, preemergence, 0 to 100 scale where 0 is no effect and 100 is complete control, read-out: Barnyardgrass plant response rating; for pest or weed control at 500 g/ha: 500 g ai/ha, Preemergence, visual injury vs untreated controls after approximately 10 d, read-out: Barnyardgrass plant response rating (0 to 100 scale where 0 is no effect and 100 is complete control). The gist of the method: as §1

In assay [3] the test system is giant foxtail (Setaria faberii). Put plainly: Test A preemergence. To be noted: Setaria faberi, pre-emergence, 240 h; for pest or weed control at 125 g/ha: 125 g ai/ha, preemergence, 0 to 100 scale where 0 is no effect and 100 is complete control, read-out: Foxtail, Giant plant response rating; for pest or weed control at 500 g/ha: 500 g ai/ha, Preemergence, visual injury vs untreated controls after approximately 10 d, read-out: Foxtail, Giant plant response rating (0 to 100 scale where 0 is no effect and 100 is complete control). In short, it runs like this:
as §1

Assay [4] relates to pigweed (Amaranthus retroflexus). Briefly: Test A preemergence. To be noted: Amaranthus retroflexus, pre-emergence, 240 h; for pest or weed control at 125 g/ha: 125 g ai/ha, preemergence, 0 to 100 scale where 0 is no effect and 100 is complete control, read-out: Pigweed plant response rating; for pest or weed control at 500 g/ha: 500 g ai/ha, Preemergence, visual injury vs untreated controls after approximately 10 d, read-out: Pigweed plant response rating (0 to 100 scale where 0 is no effect and 100 is complete control).

The subject of assay [5] is ragweed (common ragweed, Ambrosia elatior). Briefly: Test A preemergence. Particulars: Ambrosia artemisiifolia, pre-emergence, 240 h; for pest or weed control at 125 g/ha: 125 g ai/ha, preemergence, 0 to 100 scale where 0 is no effect and 100 is complete control, read-out: Ragweed plant response rating; for pest or weed control at 500 g/ha: 500 g ai/ha, Preemergence, visual injury vs untreated controls after approximately 10 d, read-out: Ragweed plant response rating (0 to 100 scale where 0 is no effect and 100 is complete control). In short, it runs like this: as §1

For assay [6], the system named is ryegrass, Italian (Italian ryegrass, Lolium multiflorum). Briefly: Test A preemergence. To be noted: Lolium multiflorum, pre-emergence, 240 h; for pest or weed control at 125 g/ha: 125 g ai/ha, preemergence, 0 to 100 scale where 0 is no effect and 100 is complete control, read-out: Ryegrass, Italian plant response rating; for pest or weed control at 500 g/ha: 500 g ai/ha, Preemergence, visual injury vs untreated controls after approximately 10 d, read-out: Ryegrass, Italian plant response rating (0 to 100 scale where 0 is no effect and 100 is complete control). In short, it runs like this:
as §1

The test system of assay [7] is Galium (catchweed bedstraw, Galium aparine). Put plainly: Test A postemergence. To be noted: Galium, post-emergence, 240 h, 125 g ai/ha. The gist of the method: as §1
Assay [8] deals with Kochia (Kochia scoparia). Put plainly: Test A postemergence. Particulars: Bassia scoparia, post-emergence, 240 h, 125 g ai/ha. The gist of the method:
as §1

The subject of assay [9] is barnyardgrass (Echinochloa crus-galli). Briefly: Test A postemergence. Particulars: Echinochloa crus-galli, post-emergence, 240 h, 125 g ai/ha. In short, it runs like this: as §1
The test system of assay [10] is blackgrass (Alopecurus myosuroides). Put plainly: Test A postemergence. Particulars: Alopecurus myosuroides, post-emergence, 240 h, 125 g ai/ha. In short, it runs like this:
as §1

In assay [11] the test system is corn (Zea mays). Briefly: Test A postemergence. To be noted: Zea mays, post-emergence, 240 h, 125 g ai/ha; for Corn plant response rating (crop injury, 0 = no effect, 100 = complete kill) at 125 g/ha: Postemergence, visual injury after approximately 10 d, 0 to 100 scale where 0 is no effect and 100 is complete control. In short, it runs like this: as §1
Assay [12] has as its system giant foxtail (Setaria faberii). Put plainly: Test A postemergence. To be noted: Setaria faberi, post-emergence, 240 h, 125 g ai/ha. In short, it runs like this:
as §1

Assay [13] relates to pigweed (Amaranthus retroflexus). Put plainly: Test A postemergence. Particulars: Amaranthus retroflexus, post-emergence, 240 h, 125 g ai/ha. In short, it runs like this: as §1
The subject of assay [14] is ragweed (common ragweed, Ambrosia elatior). Put plainly: Test A postemergence. Particulars: Ambrosia artemisiifolia, post-emergence, 240 h, 125 g ai/ha. The gist of the method: as §1
Assay [15] deals with ryegrass, Italian (Italian ryegrass, Lolium multiflorum). Put plainly: Test A postemergence. To be noted: Lolium multiflorum, post-emergence, 240 h, 125 g ai/ha. In short, it runs like this:
as §1

Assay [16] has as its system wheat (Triticum aestivum). Briefly: Test A postemergence. Particulars: Triticum aestivum, post-emergence, 240 h, 125 g ai/ha. In short, it runs like this: as §1
Setting [17] is: Postemergence, visual injury after approximately 10 d, 0 to 100 scale where 0 is no effect and 100 is complete control, read-out: Plant response rating, Galium.
Where [18] appears, read: Postemergence, visual injury after approximately 10 d, 0 to 100 scale where 0 is no effect and 100 is complete control, read-out: Plant response rating, Kochia.
Where [19] appears, read: Postemergence, visual injury after approximately 10 d, 0 to 100 scale where 0 is no effect and 100 is complete control, read-out: Plant response rating, Barnyardgrass.
The mark [20] stands for this setting: Postemergence, visual injury after approximately 10 d, 0 to 100 scale where 0 is no effect and 100 is complete control, read-out: Plant response rating, Blackgrass.
[21] abbreviates: Postemergence, visual injury after approximately 10 d, 0 to 100 scale where 0 is no effect and 100 is complete control, read-out: Plant response rating, Foxtail, Giant.
Where [22] appears, read: Postemergence, visual injury after approximately 10 d, 0 to 100 scale where 0 is no effect and 100 is complete control, read-out: Plant response rating, Pigweed.
Setting [23] is: Postemergence, visual injury after approximately 10 d, 0 to 100 scale where 0 is no effect and 100 is complete control, read-out: Plant response rating, Ragweed.
Where [24] appears, read: Postemergence, visual injury after approximately 10 d, 0 to 100 scale where 0 is no effect and 100 is complete control, read-out: Plant response rating, Ryegrass, Italian.
The mark [25] stands for this setting: Postemergence, visual injury after approximately 10 d, 0 to 100 scale where 0 is no effect and 100 is complete control, read-out: Plant response rating, Wheat.

Take `Cc1cc(C)cc([C@H]2CN(C)C(=O)[C@@H]2C(=O)Nc2ccccc2C(F)(F)F)c1` [Compound 912]: the pest or weed control at 125 g/ha is 60% in assay [1]; 80% in assay [2]; 90% in assay [3]; 0% in assay [4]; 0% in assay [5]; 40% in [6]. For the same compound, the pest or weed control at 125 g/ha in assay [7] (postemergence, visual injury rating after approximately 10 d, read-out: Galium plant response rating (0 to 100 scale, 0 no effect, 100 complete control)) came out at 0%; in [8] (postemergence, visual injury rating after approximately 10 d, read-out: Kochia plant response rating (0 to 100 scale, 0 no effect, 100 complete control)), 0%; in assay [9] (postemergence, visual injury rating after approximately 10 d, read-out: Barnyardgrass plant response rating (0 to 100 scale, 0 no effect, 100 complete control)), 80%; in assay [10] (postemergence, visual injury rating after approximately 10 d, read-out: Blackgrass plant response rating (0 to 100 scale, 0 no effect, 100 complete control)), 30%; in assay [12] (postemergence, visual injury rating after approximately 10 d, read-out: Foxtail, Giant plant response rating (0 to 100 scale, 0 no effect, 100 complete control)), 90%; in assay [13] (postemergence, visual injury rating after approximately 10 d, read-out: Pigweed plant response rating (0 to 100 scale, 0 no effect, 100 complete control)) it was 0%. Further, the pest or weed control at 125 g/ha in assay [14] (postemergence, visual injury rating after approximately 10 d, read-out: Ragweed plant response rating (0 to 100 scale, 0 no effect, 100 complete control)) amounted to 0%; in [15] (postemergence, visual injury rating after approximately 10 d, read-out: Ryegrass, Italian plant response rating (0 to 100 scale, 0 no effect, 100 complete control)) it was 20%. Moreover, the pest or weed control at 500 g/ha in assay [1] came out at 70%; in [2], 90%; in [3], 100%; in [4], 0%; in assay [5], 0%; in [6] it was 50%. For the same compound, the plant injury at 125 g/ha in [11] (postemergence, visual injury rating after approximately 10 d, read-out: Corn plant response rating (0 to 100 scale, 0 no effect, 100 complete control)) was 30%; in [16] (postemergence, visual injury rating after approximately 10 d, read-out: Wheat plant response rating (0 to 100 scale, 0 no effect, 100 complete control)), 20%.
Turning to `CN1CC[C@H](c2ccc(F)cc2)[C@@H](C(=O)Nc2ccccc2F)C1=O` [Compound 917], the pest or weed control at 125 g/ha in [1] is 0%; in assay [2] it was 20%; in assay [3], 30%; in [4], 0%; in [5], 0%; in [6] it was 0%. Also, the pest or weed control at 125 g/ha in [7] (setting [17]), in assay [8] (setting [18]), in [9] (setting [19]), in [10] (setting [20]), in assay [12] (setting [21]) and in assay [13] (setting [22]) was 0% each time. Besides, the pest or weed control at 125 g/ha in [14] (setting [23]) and in [15] (setting [24]) was 0% each time. Besides, the pest or weed control at 500 g/ha in assay [1] was found to be 0%; in assay [2], 80%; in assay [3] it was 90%; in [4] it was 0%; in assay [5] it was 0%; in assay [6] it was 0%. In [11], this compound yielded a Corn plant response rating (crop injury, 0 = no effect, 100 = complete kill) at 125 g/ha of 0%. Also, in [16] (setting [25]), the plant injury at 125 g/ha was 0%.
Turning to `COc1ccc(CN2CC[C@H](c3ccc(F)cc3)[C@@H](C(=O)Nc3cccc(F)c3F)C2=O)cc1` [Compound 919], the pest or weed control at 125 g/ha in [1], in assay [2], in assay [3], in [4], in assay [5] and in [6] was 0% throughout. Further, the pest or weed control at 125 g/ha in [7] (setting [17]), in assay [8] (setting [18]), in [9] (setting [19]), in assay [10] (setting [20]), in [12] (setting [21]) and in [13] (setting [22]) was 0% each time. Further, the pest or weed control at 125 g/ha in [14] (setting [23]) and in [15] (setting [24]) was 0% each time. The pest or weed control at 500 g/ha in [1], in [2], in assay [3], in assay [4], in assay [5] and in assay [6] was 0% in each case. In [11], this compound showed a Corn plant response rating (crop injury, 0 = no effect, 100 = complete kill) at 125 g/ha of 0%. In [16] (setting [25]), the plant injury at 125 g/ha came out at 0%.

The values above are taken from patent US12077503B2, “Substituted cyclic amides and their use as herbicides” (FMC CORPORATION, priority 2015, dated 2024).
